Series [1] concerns the target T1, norepinephrine transporter (NET) (Homo sapiens, UniProt P23975).
T1 construct: gene SLC6A2; human NET expressed in transfected HEK293 cells
Nature of the series: inhibition of mIBG internalization in HEK-NET cells, LC-MS/MS quantification. In kind it is cell-based.

Substrate in series [2]: N=C(N)NCc1cccc(I)c1
Nature of the series: cells, lysate or membranes.

T1 sequence (P23975 whole entry): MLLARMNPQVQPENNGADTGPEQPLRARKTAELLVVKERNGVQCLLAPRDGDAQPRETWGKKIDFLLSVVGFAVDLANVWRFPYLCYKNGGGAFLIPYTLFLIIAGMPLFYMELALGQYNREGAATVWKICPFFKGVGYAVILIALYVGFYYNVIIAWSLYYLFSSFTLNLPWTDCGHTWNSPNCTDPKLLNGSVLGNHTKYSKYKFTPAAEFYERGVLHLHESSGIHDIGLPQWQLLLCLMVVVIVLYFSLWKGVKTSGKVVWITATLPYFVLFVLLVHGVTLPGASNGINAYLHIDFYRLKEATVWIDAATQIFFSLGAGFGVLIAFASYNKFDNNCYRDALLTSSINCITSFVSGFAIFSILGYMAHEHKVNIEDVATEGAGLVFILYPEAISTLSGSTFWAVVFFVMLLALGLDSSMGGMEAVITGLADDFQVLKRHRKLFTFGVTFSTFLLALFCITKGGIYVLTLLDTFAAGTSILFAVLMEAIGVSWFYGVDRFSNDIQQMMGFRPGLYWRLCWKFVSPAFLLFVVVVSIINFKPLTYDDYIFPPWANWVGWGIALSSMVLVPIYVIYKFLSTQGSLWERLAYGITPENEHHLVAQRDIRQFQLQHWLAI

Turning to `c1ccc(CCCN2CCN(CCOC(c3ccccc3)c3ccccc3)CC2)cc1` [GBR12935], the IC50 in series [1] worked out at 3.61 µM. This lies in the single-digit micromolar range.

B1: dopamine transporter (DAT) (Homo sapiens) (protein)
chain: MSKSKCSVGLMSSVVAPAKEPNAVGPKEVELILVKEQNGVQLTSSTLTNPRQSPVEAQDRETWGKKIDFLLSVIGFAVDLANVWRFPYLCYKNGGGAFLVPYLLFMVIAGMPLFYMELALGQFNREGAAGVWKICPILKGVGFTVILISLYVGFFYNVIIAWALHYLFSSFTTELPWIHCNNSWNSPNCSDAHPGDSSGDSSGLNDTFGTTPAAEYFERGVLHLHQSHGIDDLGPPRWQLTACLVLVIVLLYFSLWKGVKTSGKVVWITATMPYVVLTALLLRGVTLPGAIDGIRAYLSVDFYRLCEASVWIDAATQVCFSLGVGFGVLIAFSSYNKFTNNCYRDAIVTTSINSLTSFSSGFVVFSFLGYMAQKHSVPIGDVAKDGPGLIFIIYPEAIATLPLSSAWAVVFFIMLLTLGIDSAMGGMESVITGLIDEFQLLHRHRELFTLFIVLATFLLSLFCVTNGGIYVFTLLDHFAAGTSILFGVLIEAIGVAWFYGVGQFSDDIQQMTGQRPSLYWRLCWKLVSPCFLLFVVVVSIVTFRPPHYGAYIFPDWANALGWVIATSSMAMVPIYAAYKFCSLPGSFREKLAYAIAPEKDRELVDRGEVRQFTLRHWLKV
In the case of B1, the Km in series [2] amounted to 2.807 µM.

The values are drawn from paper PMC10485979, “CUDC-907, a dual PI3K/histone deacetylase inhibitor, increases meta-iodobenzylguanidine uptake (^123/131I-mIBG) in vitro and in vivo: a promising candidate for advancing theranostics in neuroendocrine tumors” (Journal of Translational Medicine, 2023).
